These results are taken from paper PMC7970697, “Inhibition and Induction by Poziotinib of Different Rat Cytochrome P450 Enzymes In Vivo and in an In Vitro Cocktail Method” (Frontiers in Pharmacology, 2021).

Where two headings read alike, the source gives them in different places.

Type in all cases: in vitro ADME
Holding throughout (design): from tissue; host or cells: rat liver microsomes, prepared in-house
On the technique in general: Liver microsomes are a subcellular fraction often used to study metabolism.

Data set [1] addresses T1, cyp2b1 (Rattus norvegicus, UniProt P00176).
T1 sequence (P00176 1-491): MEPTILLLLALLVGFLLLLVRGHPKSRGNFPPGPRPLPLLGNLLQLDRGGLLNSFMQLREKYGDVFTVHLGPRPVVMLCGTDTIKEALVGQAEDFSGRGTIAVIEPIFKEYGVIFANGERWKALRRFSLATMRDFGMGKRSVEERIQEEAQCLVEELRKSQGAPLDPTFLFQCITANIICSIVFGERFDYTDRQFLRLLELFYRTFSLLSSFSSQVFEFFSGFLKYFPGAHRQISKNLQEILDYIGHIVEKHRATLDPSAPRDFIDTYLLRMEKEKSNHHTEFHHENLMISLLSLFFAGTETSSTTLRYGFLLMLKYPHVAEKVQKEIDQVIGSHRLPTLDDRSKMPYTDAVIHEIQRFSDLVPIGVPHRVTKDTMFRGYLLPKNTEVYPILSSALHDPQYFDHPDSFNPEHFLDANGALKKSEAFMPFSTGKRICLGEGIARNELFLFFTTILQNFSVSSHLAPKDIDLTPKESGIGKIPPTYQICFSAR
Put plainly: Cocktail method IC50 in rat liver microsomes, bupropion probe. The method, then: The cocktail method was employed to analyze the effects of poziotinib on cyp1a2, cyp2b1, cyp2c11, cyp2d1, cyp2e1, and cyp3a1/2. […] Then half-maximal inhibitory concentration (IC50) of poziotinib was determined with all of the CYPs. […]. To this cocktail, 1 mg/ml of RLMs, 100 mM potassium phosphate buffer (pH 7.4), poziotinib (1, 2.5, 5, 10, 25, 50, or 100 μM) were added to obtain a final volume of 200 μL. After pre-incubation of this mixture for 5 min in a shaking water bath at 37°C, 1 mM NADPH was added to start the reaction. The reactions were allowed to proceed for 30 min, after which 200 μL of acetonitrile and 20 μL of IS were added to terminate the reactions. The mixtures were vortexed for 30 s and centrifuged again at 13,000 rpm for 5 min.

The target of data set [2] is T1, cyp2b1. Put plainly: Time- and concentration-dependent inhibition in RLMs, bupropion. How it is done:
(§1) A mixture containing 1 mg/ml of RLMs, different concentrations of poziotinib (0, 2, 4, 8 and16 μM for 2b1; 0, 5, 10 20 and 40 μM for 2c11), and NADPH was pre-incubated at 37°C for 0, 5, 10, and 20 min; Methanol instead of poziotinib was performed as control. Then 20 μM bupropion or 100 μM tolbutamide was added and incubated at 37°C for 30 min. The reactions were carried out and analyzed in triplicate as described in 2.3.

The target in data set [3] is T2, cyp2c11 (Rattus norvegicus, UniProt P08683).
T2 sequence (P08683 1-500): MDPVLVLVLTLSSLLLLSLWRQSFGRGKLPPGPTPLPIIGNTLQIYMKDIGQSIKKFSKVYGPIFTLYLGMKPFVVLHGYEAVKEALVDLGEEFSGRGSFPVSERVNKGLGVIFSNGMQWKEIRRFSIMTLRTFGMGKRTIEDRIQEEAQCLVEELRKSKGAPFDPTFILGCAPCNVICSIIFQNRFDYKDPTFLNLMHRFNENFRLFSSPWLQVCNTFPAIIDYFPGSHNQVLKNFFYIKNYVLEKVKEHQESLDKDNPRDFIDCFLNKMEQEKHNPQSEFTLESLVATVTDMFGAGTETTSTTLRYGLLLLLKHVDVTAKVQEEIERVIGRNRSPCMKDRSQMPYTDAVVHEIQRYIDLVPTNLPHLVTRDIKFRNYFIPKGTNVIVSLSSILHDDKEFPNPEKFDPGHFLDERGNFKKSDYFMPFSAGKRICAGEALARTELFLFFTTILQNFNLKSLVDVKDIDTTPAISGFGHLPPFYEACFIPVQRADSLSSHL
Put plainly: Time- and concentration-dependent inhibition in RLMs, tolbutamide. How it is done:
as §1

Where [4] appears, read: pre-incubation 0, 5, 10, 20 min with NADPH.

What is called IC50 is the midpoint of a concentration-inhibition curve. In the case of `C=CC(=O)N1CCC(Oc2cc3c(Nc4ccc(Cl)c(Cl)c4F)ncnc3cc2OC)CC1` [Poziotinib], the IC50 in data set [1] (20 μM bupropion, cocktail, 30 min, read-out: IC50) is 8.79 µM; in data set [1] (classes after Jin et al., 2015, read-out: inhibition class by IC50, CYP2B1), 1 to 10 µM. Further, the “time- and concentration-dependent inhibition of cyp2b1” value in data set [2] (pre-incubation 0, 5, 10, 20 min, poziotinib 2-16 μM) was “no time- or concentration-dependent inhibitory effects”. The “reversibility of inhibition of cyp2b1” value in data set [2] (setting [4]) is “reversible”. In addition, the “time- and concentration-dependent inhibition of cyp2c11” value in data set [3] (pre-incubation 0, 5, 10, 20 min, poziotinib 5-40 μM) is “no time- or concentration-dependent inhibitory effects”. In addition, the “reversibility of inhibition of cyp2c11” value in data set [3] (setting [4]) is listed as “reversible”.
